# Results: patent US20220249484A1, “METHODS FOR PREDICTING RESPONSIVENESS OF CANCER TO FERROPTOSIS-INDUCING THERAPIES” (Memorial Sloan Kettering Cancer Center, priority 2019, published 2022)
# Columns and labels:
# HCT116 cells [1] = assay: Cell death inhibitors in sparse HCT116 cells under cystine starvation or RSL3; format: cell-based, human; details: 5×10^4 cells/well; for inhibition of RSL3-induced cell death: 5 μM RSL3 24 h, with cell death inhibitors; for inhibition of cystine starvation-induced cell death: cystine-free media 30 h, Fer-1 1 μM, DFO 50 μg/mL, Z-VAD-FMK 20 μM, GSK'872 10 μM
# Procedure: (§1) Measurement of cell death, cell viability and lipid peroxidation. Cell death was analyzed by propidium iodide (Invitrogen, Waltham, Mass., USA) or SYTOX Green (Invitrogen) staining followed by microscopy or flow cytometry. For 3D spheroids, cell viability was determined using the CellTiter-Glo® 3D Cell Viability Assay (Promega, Madison, Wis., USA) according to the manufacturer's instructions. Viability was calculated by normalizing ATP levels to spheroids treated with normal full media. To analyze lipid peroxidation, cells were stained with 5 μM BODIPY-C11 (Invitrogen) for 30 minutes at 37° C. followed by flow cytometric analysis.
# To confirm that sparse HCT116 cells were dying from ferroptosis but not another cell death modality, various cell death inhibitors were tested: ferrostatin-1 (Fer-1) and DFO, which inhibit ferroptosis, Z-VAD-FMK, a pan-caspase inhibitor, and GSK'872, a selective RIPK3 inhibitor that blocks necroptosis. HCT116 cells were seeded at a density of 5×10^4 cells/well and grown for 24 hours. Cells were washed in PBS and cultured in cystine-free media with the indicated treatments for 30 h. Fer-1: Ferrostatin-1, 1 μM; DFO: iron chelator, 50 μg/mL; Z-VAD-FMK: pan-caspase inhibitor, 20 μM; GSK'872: RIPK3 inhibitor, 10 μM. HCT116 cells were seeded at a density of 5×10^4 cells/well and grown for 24 hours, then treated with 5 μM RSL3 and the indicated cell death inhibitors for 24 hours before measuring cell death. These experiments confirmed that cells underwent ferroptosis, instead of other modes of cell death, under these conditions (FIGS. 6C-6D). Similar cell density-dependent ferroptosis was previously observed by Seiler et al., Cell Metab. 8: 237-248 (2008) and Schneider et al., Neoplasia 12:254-263 (2010). In Seiler et al., mouse embryonic fibroblasts (MEFs) harboring two floxed GPX4 alleles survived and grew when seeded at high density, but upon passage at lower density they died rapidly. In Schneider et al., GPX4-deficient MEFs formed 3D tumor spheroids as well as wild-type MEFs by an unknown mechanism.
# HCT116 cells [2] = assay: Ferroptosis in confluent HCT116 cells expressing shEcad, shMerlin or shLats1/2; format: cell-based, human; details: cystine starvation or RSL3 plus
# Procedure: as §1
# The involvement of the Hippo signaling in the regulation of ferroptosis by cell-cell contact was also assessed. Cells depleted of Ecad, Merlin, or Lats were generated using shRNA technology. HCT116 cells were infected by lentiviruses expressing shRNA sequences targeting Ecad (shEcad), Merlin (shMerlin), or Lats1/2 (shLats1/2), as indicated. Knockdown efficiency was confirmed by Western blot (FIG. 2B). […] Cell death was measured at 30 h using SYTOX Green staining followed by flow cytometry. Lipid ROS was measured at 24 hours using C11-BODIPY staining coupled with flow cytometry. […] Cell death was measured at 18 h and lipid ROS was measured at 14 h (FIG. 11A).
# [3] = tested on: tumor spheroids of HCT116 cells; assay: Erastin-induced cell death in HCT116 tumor spheroids; format: cell-based, human; details: 15 μM erastin with 2 μM Fer-1, 30 h
# Procedure: Generation of three-dimensional spheroids. Spheroids were generated by plating tumor cells at 10^3/well into U-bottom Ultra Low Adherence (ULA) 96-well plates (Corning, Tewksbury, Mass., USA). Optimal three-dimensional structures were achieved by centrifugation at 600 g for 5 min followed by addition of 2.5% Matrigel (Corning). Plates were incubated for 72 h at 37° C., 5% CO2, 95% humidity for formation of a single spheroid of cells. Spheroids were then treated with erastin in fresh medium containing Matrigel for the indicated time.
# as §1, with “To analyze lipid peroxidation, cells were stained with 5 μM BODIPY-C11 (Invitrogen) for 30 minutes at 37° C. followed by flow cytometric analysis.” left out
# Tumor spheroids generated from shEcad, shMerlin and shLats1/2 cells were treated with 15 μM erastin with or without 2 μM Fer-1 for 30 h, and dead cells were stained green by SYTOX Green. Cell viability within the tumor spheroids was measured by determining ATP levels. […]
# MSTO-211H cells = assay: Ferroptosis in confluent MSTO-211H cells (shMerlin, shNcad); format: cell-based, human
# Procedure: as §1
# To confirm the ferroptosis-regulating role of Merlin in mesothelioma cells, the effect of Merlin knockdown on ferroptosis sensitivity was assessed. MSTO-211H cells were infected with lentiviruses expressing shMerlin. RNAi knockdown efficiency was confirmed by Western blot (FIG. 3F). Then, shNT or shMerlin MSTO-211H cells were cultured to high confluence, at which point they were treated with media containing or lacking cystine, with or without Fer-1 for 24 h. Cell death was measured by SYTOX Green staining followed by flow cytometry (FIG. 3G). To measure lipid reactive species, shNT or shMerlin MSTO-211H cells were treated for 18 h, at which point they were stained with 2 μM C11-BODIPY for lipid ROS measurement (FIG. 311). Confluent MSTO-211H cells expressing shNT or shMerlin were also treated with 1 μM RSL3 with or without […] Fer-1. Cell death (left, 24 h after treatment) and lipid ROS production (right, 16 h) were measured (FIG. 13B).
# Therefore, the cell density dependence of ferroptosis is not limited to epithelial cells expressing Ecad. […] To assess the expression of N-cadherin in MSTO-211H mesothelioma cells, the cells were cultivated at different cell densities, and the levels of Ncad, p-YAP and total YAP were analyzed by Western blot. […] Therefore, the potential role of Ncad in ferroptosis was tested. MSTO-211H cells were infected with lentiviruses expressing Ncad shRNA (shNcad) and selected with puromycin.
# MEFs = assay: Ferroptosis and lipid ROS in MEFs; format: cell-based, mouse; details: Ferrostatin-1 2 μM; cystine starvation, erastin or RSL3
# Procedure: as §1
# Merlin-regulated ferroptosis in cell density dependent manner was also observed in MEFs, which are not of epithelial origin. Cell death of MEFs with different cell density induced by cystine starvation for 12 h was measured by PI staining (FIG. 15A), and flow cytometry (FIG. 15B). The effect of cystine starvation on lipid ROS production in MEFs cells with different cell density (6 h treatment) is also shown in FIG. 15B. […] As shown in FIGS. 15A-15D, increased cell density mitigated both cell death and lipid ROS generation induced by cystine starvation, erastin and RSL3 in MEFs.
# MEFs also regulated the activity of YAP at high density in a Merlin-dependent manner. MEFs seeded at increasing density were probed for YAP localization by Immunofluorescence (FIG. 15E). The effect of Merlin was assessed by infecting MEFs with shMerlin lentivirus and selected with puromycin. […] As shown in FIGS. 15E-15F, with increasing cell confluence, there was an increase of YAP nuclear exclusion in MEFs, which was attenuated by Merlin knockdown.
# HCT116 cells [4] = assay: Ferroptosis in HCT116 cells expressing PAK-CAAX; format: cell-based, human
# [5] = tested on: HCT116-derived xenograft tumors; assay: shLats1/2 HCT116 subcutaneous xenograft treated with IKE; format: in vivo, nude mice
# Procedure: For shLats1/2 s.c. tumor models, female athymic nu/nu mice aged 6 to 8 weeks were injected in the right flank with 2×10^6 shNT HCT116 cells or shLats1/2 HCT116 cells. Tumors were measured with calipers every day. When tumors reached a mean volume of 90 mm^3, mice were randomized into four groups and treated with vehicle (65% D5W (5% dextrose in water), 5% Tween-80, 30% PEG-400) or 50 mg/kg IKE (65% D5W (5% dextrose in water), 5% Tween-80, 30% PEG-400) via IP injection once a day. At the end of the study, mice were euthanized with CO2 and tumors were taken for measurement of weight.
# To determine whether Lats1/2, the kinases that directly phosphorylate and inactivate YAP, can have similar effects in vivo as Merlin, subcutaneous xenograft tumors were formed from HCT116 cells harboring hairpins targeting Lats1/2. In particular, HCT116 cells containing non-targeting hairpins or hairpins targeting both Lats1 and 2 were injected subcutaneously into nude mice (n=6 per group). Tumors were grown to a volume of 90 mm^3, at which point they were injected […] with 50 mg/kg imidazole ketone erastin (IKE) once a day for 12 days. Tumor volume was measured daily by caliper. Images of resected tumors and their masses were also quantified (FIGS. 19B-19C). Imidazole ketone erastin (IKE) is an erastin analog that is amenable for in vivo use because of the increased solubility and stability.
# 211H mesothelioma cells = assay: Sorafenib-induced ferroptosis; format: cell-based, human; details: 10 μM sorafenib
# Procedure: (§2) The effect of sorafenib on cell density-dependent ferroptosis was determined. First, HCT116 cells were seeded at a density of 0.5×10^5 cells/3.5 cm2 well (sparse) or 4×10^5 cells/3.5 cm2 well (confluent) and grown for 24 h. Cells were then treated with DMSO, 10 μM sorafenib, or 10 μM sorafenib and 2 μM Fer-1 as indicated. […] Second, ΔEcad or the parental HCT116 cells were seeded at 4×10^5 cells/3.5 cm2 well and grown for 24 h. Cells were then treated with 10 μM sorafenib and 2 μM Fer-1 as indicated. Third, HCT116 shNT or shMerlin cells, MSTO-211H shNT or shMerlin cells, HCT116 cells expressing YAP^S127A or the parental cells, MSTO-211H cells expressing YAP^S127A or the parental cells, and HCT116 shNT or shLats1/2 cells were seeded at high density and treated with 10 μM sorafenib and 2 μM Fer-1 as indicated.
# HCT116 cells [6] = assay: Sorafenib-induced ferroptosis; format: cell-based, human; details: 10 μM sorafenib
# Procedure: as §2
# malignant mesothelioma = details: clinical trials; cited from earlier work
# 211H cells = assay: Verteporfin and cystine starvation-induced ferroptosis; format: cell-based, human; details: verteporfin 0.5 μM
# Procedure: (§3) To further confirm this conclusion, a pharmacological analysis was performed. As a transcriptional coactivator, YAP regulates the expression of multiple target genes through its interaction with the TEAD family of transcriptional factors. Verteporfin (VP), a pharmacological agent that can inhibit the interaction of YAP with the TEAD family members was used to determine the effect of Merlin on ferroptosis. […] YAP^S127A-expressing cells were also treated with verteporfin (0.5 μM) after 24 h of cystine starvation in shMerlin HCT116 or 211H cells.
# HCT116 cells [7] = assay: as above; format: cell-based, human; details: verteporfin 0.5 μM
# Procedure: as §3
compound,measurement,setting,value
CC(=O)N(O)CCCCCNC(=O)CCC(=O)N(O)CCCCCNC(=O)CCC(=O)N(O)CCCCCN [DFO],inhibition of RSL3-induced cell death,HCT116 cells [1],inhibited
same,inhibition of cystine starvation-induced cell death,HCT116 cells [1],inhibited
"CCOC(=O)c1ccc(NC2CCCCC2)c(N)c1 [Fer-1, Ferrostatin-1]",inhibition of RSL3-induced cell death,HCT116 cells [1],inhibited
same,inhibition of cystine starvation-induced cell death,HCT116 cells [1],inhibited
same,"block of cell death by Fer-1, confluent knockdown cells",HCT116 cells [2],blocked cell death
same,block of erastin-induced cell death in spheroids by Fer-1,[3],blocked cell death
same,block of RSL3-induced ferroptosis and lipid ROS in shMerlin cells by Fer-1,MSTO-211H cells; 1 μM RSL3 with 204 Fer-1,blocked
same,block of lipid ROS production in cystine-deprived shMerlin cells by Fer-1,"MSTO-211H cells; high confluence, 18 h",blocked
same,block of cystine deprivation-induced ferroptosis in shMerlin cells by Fer-1,"MSTO-211H cells; high confluence, cystine-free 24 h",blocked
same,block of cell death and lipid ROS in confluent Merlin RNAi MEFs,MEFs,blocked
same,inhibition of RSL3-induced ferroptosis in PAK-CAAX cells by Fer-1,HCT116 cells [4],inhibited
same,inhibition of cystine deprivation-induced ferroptosis in PAK-CAAX cells by Fer-1,HCT116 cells [4],inhibited
"CC(C)Oc1ccc(C(=O)Cn2ccnc2)cc1-n1c(CN2CCN(C(=O)COc3ccc(Cl)cc3)CC2)nc2ccccc2c1=O [IKE, imidazole ketone erastin]",mass of resected xenograft tumors,"[5]; Lats1/2 depleted HCT116 tumors, 50 mg/kg IKE once a day",reduced
same,xenograft tumor growth (volume),"[5]; shLats1/2 HCT116 tumors, 50 mg/kg IKE once a day for 12 days",grew slowly or receded
CNC(=O)c1cc(Oc2ccc(NC(=O)Nc3ccc(Cl)c(C(F)(F)F)c3)cc2)ccn1 [sorafenib],sorafenib-induced ferroptosis at high cell density after inhibition of Merlin or activation of YAP,211H mesothelioma cells,sensitize these cells to sorafenib-induced ferroptosis at high cell density
same,"sorafenib-induced ferroptosis at high cell density after loss of Ecad, Lats1/2, inhibition of Merlin or activation of YAP",HCT116 cells [6],sensitize these cells to sorafenib-induced ferroptosis at high cell density
same,"sorafenib-induced ferroptosis, sparse versus confluent cells",HCT116 cells [6],could induce cell density-dependent ferroptosis
same,clinical outcome in malignant mesothelioma,malignant mesothelioma,"can stabilize, but not necessarily treat mesothelioma"
Verteporfin,effect of Merlin knockdown and YAP^S127A overexpression on cystine starvation-induced ferroptosis,211H cells; high density,ablated the effect of Merlin knockdown and YAP^S127A overexpression
same,sensitivity of shMerlin cells to cystine starvation-induced ferroptosis,211H cells; 24 h cystine starvation,reduced cells sensitivity to ferroptosis
same,effect of Merlin knockdown and YAP^S127A overexpression on cystine starvation-induced ferroptosis,HCT116 cells [7]; high density,ablated the effect of Merlin knockdown and YAP^S127A overexpression
same,sensitivity of shMerlin cells to cystine starvation-induced ferroptosis,HCT116 cells [7]; 24 h cystine starvation,reduced cells sensitivity to ferroptosis
